Read-outs that look alike come from different tables or passages of the source.
Key:
[1] = target: T1, PKC α (Homo sapiens, UniProt P17252); assay: PKC enzyme assay (BIOTRAK Protein kinase C enzyme assay system, 32P-ATP phosphorylation of peptide […]); assay type: biochemical
T1 construct: purchased CALBIOCHEM
Experimental: (§1) As the reagent for enzyme assay, BIOTRAK Protein kinase C enzyme assay system (hereinafter the system, Amersham), and as the PKC enzyme standard product, Protein Kinase C, Human Recombinant (CALBIOCHEM) were purchased and used in the assay. A substrate mixture was prepared by mixing calcium buffer (12 mM calcium acetate, 50 mM Tris/HCl pH 7.5, 0.05% (w/v) sodium azide), Lipid (0.3 mg/ml La-phosphatidyl-L-serine, […] phorbol 12-myristate 13-acetate, 50 mM Tris/HCl pH 7.5, 0.05% (w/v) sodium azide), peptide buffer (900 µM peptide […]), 50 mM Tris/HCl pH 7.5, 0.05% (w/v) sodium azide), DTT buffer (30 mM dithiothreitol, 50 mM Tris/HCl pH 7.5, 0.05% (w/v) sodium azide), and magnesium ATP buffer (1.2 mM ATP, […] pH 7.4, 72 mM magnesium chloride) all attached to the system in a ratio of 1:1:1:1:0.8 and adding [ y -32P]ATP (Amersham, cat. […] The PKC enzyme standard product was diluted with an assay buffer (10 mM Hepes pH 7.4, 0.01% Triton X-100) to a concentration of 400 ng/ml and used as the enzyme solution. The substrate mixture and a test substance (diluted to the final concentration of 1 nM-10 µM with dimethyl sulfoxide (DMSO)) were mixed at a ratio of 20:1. The enzyme solution was added in the amount equivalent to the substrate mixture and mixed, which was followed by incubation at 37°C for 15 minutes. The reaction terminator (300 mM orthophosphoric acid containing carmosine red) attached to the system was added in the amount equivalent to the substrate mixture to end the reaction, and the reaction mixture was spotted on a phosphocellulose paper (Whatman, P-81), washed twice with 75 mM orthophosphoric acid and assayed for radioactivity by BAS2000 (Fuji film).
(§2) The ratio of the radioactivity of the addition of the test substance to the addition of DMSO was determined, and IC50 was calculated from inhibition at each concentration.

[2] = target: T2, PKC β II (Homo sapiens, UniProt P05771); assay: as above; assay type: biochemical
T2 construct: purchased CALBIOCHEM
T2 sequence (P05771 other isoform, or with tags, fused parts or gaps): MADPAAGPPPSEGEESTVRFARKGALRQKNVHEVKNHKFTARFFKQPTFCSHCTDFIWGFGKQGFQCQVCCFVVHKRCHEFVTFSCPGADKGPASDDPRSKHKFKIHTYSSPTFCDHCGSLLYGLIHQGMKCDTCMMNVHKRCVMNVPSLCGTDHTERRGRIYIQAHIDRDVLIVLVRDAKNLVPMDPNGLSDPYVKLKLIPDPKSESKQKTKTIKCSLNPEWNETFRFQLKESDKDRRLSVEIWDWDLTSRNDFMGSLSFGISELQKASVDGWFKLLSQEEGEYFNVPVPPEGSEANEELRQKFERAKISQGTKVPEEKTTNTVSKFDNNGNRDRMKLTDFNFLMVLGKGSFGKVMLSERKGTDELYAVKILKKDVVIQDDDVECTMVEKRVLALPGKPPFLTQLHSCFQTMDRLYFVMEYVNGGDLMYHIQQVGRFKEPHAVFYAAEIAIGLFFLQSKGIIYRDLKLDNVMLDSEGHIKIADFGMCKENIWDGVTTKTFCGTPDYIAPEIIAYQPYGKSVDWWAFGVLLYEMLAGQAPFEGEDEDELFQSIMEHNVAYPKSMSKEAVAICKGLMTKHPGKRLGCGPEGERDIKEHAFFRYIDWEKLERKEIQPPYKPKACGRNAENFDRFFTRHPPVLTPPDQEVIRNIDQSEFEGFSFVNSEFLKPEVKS
From the text: The method for determining the PKC inhibitory activity of the compound of the present invention is explained in the following. Inasmuch as PKCβII is present in greater number in intravascular cells than PKCβI, PKCβII was mainly used here to test the enzyme activity.
as §1, §2

[3] = Protein Kinase C, Human Recombinant; test substance 1 nM-10 µM; 37°C, 15 minutes; read-out: Inhibition of PKC activity IC50 PKC α
[4] = Protein Kinase C, Human Recombinant; test substance 1 nM-10 µM; 37°C, 15 minutes; read-out: Inhibition of PKC activity IC50 PKC β II
[5] = read-out: Inhibition of PKC activity IC50 PKC α; Protein Kinase C, Human Recombinant; test substance 1 nM-10 µM; 37°C, 15 minutes
[6] = read-out: Inhibition of PKC activity IC50 PKC β II; Protein Kinase C, Human Recombinant; test substance 1 nM-10 µM; 37°C, 15 minutes

SMILES | IC50 [1, 3] | Ratio α/β ([2]; IC50 PKC α / IC50 PKC β II) | IC50 [2, 4] | IC50 [1, 5] | IC50 [2, 6]
O=C1NC(=O)C(c2cn(CCCCN3CCC(O)CC3)c3ccccc23)=C1Nc1cccc(Cl)c1 [Example 2-27, 3-[(3-chlorophenyl)amino]-4-[1-{4-(4-hydroxypiperidino)butyl}-1H-indol-3-yl]-1H-pyrrole-2,5-dione] | 973 nM | 37 | 26 nM | – | –
O=C1NC(=O)C(c2cn(CCCN3CCC(CO)CC3)c3ccccc23)=C1Nc1ccccc1 [Example 2-50, 3-[1-{3-[4-(hydroxymethyl)piperidino]propyl}-1H-indol-3-yl]-4-(phenylamino)-1H-pyrrole-2,5-dione] | 886 nM | 47 | 19 nM | – | –
O=C1NC(=O)C(c2cn(CCCN3CCC(N4CCCCC4)CC3)c3ccccc23)=C1Nc1ccccc1 [Example 2-31, 3-(phenylamino)-4-[1-{3-(4-piperidinopiperidino)propyl}-1H-indol-3-yl]-1H-pyrrole-2,5-dione] | 703 nM | 59 | 12 nM | – | –
O=C1NC(=O)C(c2cn(CCCO)c3ccccc23)=C1Nc1ccccc1 [Example 2-1, 3-[1-(3-hydroxypropyl)-1H-indol-3-yl]-4-(phenylamino)-1H-pyrrole-2,5-dione] | 1620 nM | 54 | 30 nM | – | –
CN(C)C[C@H]1Cc2c(C3=C(Nc4ccccc4)C(=O)NC3=O)c3ccccc3n2C1 [Example 4-64] | – | 37 | 4 nM | 148 nM | –
O=C1NC(=O)C(c2cn(CCCCCn3ccnc3)c3ccccc23)=C1Nc1ccccc1 [Example 2-41, 3-[1-(5-imidazol-1-ylpentyl)-1H-indol-3-yl]-4-(phenylamino)-1H-pyrrole-2,5-dione] | 2740 nM | 44 | 62 nM | – | –
O=C1NC(=O)C(c2cn(CCCS(=O)(=O)c3ccccc3)c3ccccc23)=C1Nc1ccccc1 [Example 2-35, 3-[1-{3-(phenylsulfonyl)propyl}-1H-indol-3-yl]-4-(phenylamino)-1H-pyrrole-2,5-dione] | 3890 nM | 41 | 95 nM | – | –
O=C1NC(=O)C(c2cn(CCCO)c3ccccc23)=C1Nc1ccc(Cl)c(Cl)c1 [Example 2-6, 3-[(3,4-dichlorophenyl)amino]-4-[1-(3-hydroxypropyl)-1H-indol-3-yl]-1H-pyrrole-2,5-dione] | 3310 nM | 55 | 60 nM | – | –
O=C1NC(=O)C(c2c[nH]c3ccccc23)=C1Nc1ccccc1 [Example 1-2, 3-(1H-indol-3-yl)-4-(phenylamino)-1H-pyrrole-2,5-dione] | 7230 nM | – | 223 nM | – | –
O=C1NC(=O)C(c2cn(CCCN3CCC(Cc4ccccc4)CC3)c3ccccc23)=C1Nc1ccccc1 [Example 2-48, 3-[1-{3-(4-benzylpiperidino)propyl}-1H-indol-3-yl]-4-(phenylamino)-1H-pyrrole-2,5-dione] | 1390 nM | 77 | 18 nM | – | –
O=C1NC(=O)C(c2cn(CCCN3CCN(CCO)CC3)c3ccccc23)=C1Nc1ccccc1 [Example 2-32, 3-[1-{3-[4-(2-hydroxyethyl)piperazin-1-yl]propyl}-1H-indol-3-yl]-4-(phenylamino)-1H-pyrrole-2,5-dione] | 1080 nM | 57 | 19 nM | – | –
O=C1NC(=O)C(c2cn(CCCCn3ccnc3)c3ccccc23)=C1Nc1cccc(Cl)c1 [Example 2-40, 3-[(3-chlorophenyl)amino]-4-[1-(4-imidazol-1-ylbutyl)-1H-indol-3-yl]-1H-pyrrole-2,5-dione] | 770 nM | 41 | 19 nM | – | –
Cc1cncn1CCCn1cc(C2=C(Nc3cccc(Cl)c3)C(=O)NC2=O)c2ccccc21 [Example 2-59, 3-[(3-chlorophenyl)amino]-4-[1-{3-(5-methyl-imidazol-1-yl)propyl}-1H-indol-3-yl]-1H-pyrrole-2,5-dione] | 356 nM | 45 | 8 nM | – | –
O=C1NC(=O)C(c2cn(CCn3ccnc3)c3ccccc23)=C1Nc1ccccc1 [Example 2-62, 3-[1-(2-imidazol-1-ylethyl)-1H-indol-3-yl]-4-(phenylamino)-1H-pyrrole-2,5-dione] | 4430 nM | 55 | 81 nM | – | –
CCN(CC)C[C@H]1Cc2c(C3=C(Nc4ccccc4)C(=O)NC3=O)c3ccccc3n2C1 [Example 4-65] | – | 61 | 32 nM | 1950 nM | –
CCN(C)CCCn1c(C)c(C2=C(Nc3ccccc3)C(=O)NC2=O)c2ccccc21 [Example 2-56, 3-[1-{3-(ethylmethylamino)propyl}-2-methyl-1H-indol-3-yl]-4-(phenylamino)-1H-pyrrole-2,5-dione] | 5490 nM | 65 | 84 nM | – | –
O=C1NC(=O)C(c2c3n(c4ccccc24)C[C@@H](CN2CCCC2)C3)=C1Nc1ccccc1 [Example 4-67] | – | 68 | 8 nM | 542 nM | –
CC(=O)OCCn1cc(C2=C(Nc3ccccc3)C(=O)NC2=O)c2ccccc21 [Example 2-7, 3-[1-(2-acetoxyethyl)-1H-indol-3-yl]-4-(phenylamino)-1H-pyrrole-2,5-dione] | 3170 nM | 57 | 56 nM | – | –
CCN(CC)CCCn1cc(C2=C(Nc3ccccc3)C(=O)NC2=O)c2ccccc21 [Example 2-13, 3-[1-(3-diethylaminopropyl)-1H-indol-3-yl]-4-(phenylamino)-1H-pyrrole-2,5-dione] | 1260 nM | 60 | 21 nM | – | –
CCN(CCCn1cc(C2=C(Nc3ccccc3)C(=O)NC2=O)c2ccccc21)Cc1ccncc1 [Example 2-18, 3-[1-{3-[N-ethyl-N-(4-pyridylmethyl)amino]propyl}-1H-indol-3-yl]-4-(phenylamino)-1H-pyrrole-2,5-dione] | 7530 nM | 41 | 183 nM | – | –
O=C1NC(=O)C(c2cn(CCCN3CCSCC3)c3ccccc23)=C1Nc1ccccc1 [Example 2-21, 3-(phenylamino)-4-[1-(3-thiomorpholinopropyl)-1H-indol-3-yl]-1H-pyrrole-2,5-dione] | 773 nM | 46 | 17 nM | – | –

Second part, the molecule after the results:

IC50 [1, 3] | Ratio α/β ([2]; IC50 PKC α / IC50 PKC β II) | IC50 [2, 4] | IC50 [1, 5] | IC50 [2, 6] | SMILES
– | 121 | – | 2660 nM | 22 nM | O=C1NC(=O)C(c2c3n(c4ccccc24)C[C@H](CN2CCOCC2)CC3)=C1Nc1ccccc1 [Example 4-42]
3660 nM | 34 | 108 nM | – | – | NC(=O)N1CCC(Cn2cc(C3=C(Nc4ccccc4)C(=O)NC3=O)c3ccccc32)CC1 [Example 3-6, 3-[1-{(1-carbamoylpiperidin-4-yl)methyl}-1H-indol-3-yl]-4-(phenylamino)-1H-pyrrole-2,5-dione]
– | 244 | – | > 10000 nM | 41 nM | O=C1NC(=O)C(c2c3n(c4ccccc24)CCCC(Cn2ccnc2)C3)=C1Nc1ccccc1 (centres unmarked) [Example 4-38]
– | 82 | – | 494 nM | 6 nM | CCN(CC)C[C@@H]1CCc2c(C3=C(Nc4ccccc4)C(=O)NC3=O)c3ccccc3n2C1 [Example 4-50]
– | 112 | – | > 10000 nM | 89 nM | NC(=O)c1cccc(NC2=C(c3c4n(c5ccccc35)C[C@H](CO)CC4)C(=O)NC2=O)c1 [Example 4-46]
– | 107 | – | 749 nM | 7 nM | O=C1NC(=O)C(c2c3n(c4ccccc24)C[C@H](CO)C=C3)=C1Nc1ccccc1 [Example 4-43]
2560 nM | 46 | 56 nM | – | – | Cl.N=C(N)N1CCC(Cn2cc(C3=C(Nc4ccccc4)C(=O)NC3=O)c3ccccc32)CC1 [Example 3-7, 3-[1-{(1-amidinopiperidin-4-yl)methyl}-1H-indol-3-yl]-4-(phenylamino)-1H-pyrrole-2,5-dione hydrochloride]
– | 159 | – | 159 nM | 1 nM | CNC[C@H]1Cc2c(C3=C(Nc4ccccc4)C(=O)NC3=O)c3ccccc3n2C1 [Example 4-70]
– | 68 | – | 204 nM | 3 nM | CCN(C)C[C@H]1CCn2c(c(C3=C(Nc4ccccc4)C(=O)NC3=O)c3ccccc32)C1 [Example 4-24]
